According to ChEMBL document CHEMBL3885881, “DrugMatrix”:

Species on record: Rattus norvegicus
Assay: DrugMatrix - Regimen: Daily Repeat
Type: toxicity, organism-based, Sprague-Dawley
Design: regimen Daily Repeat, gender Male, age 6-8 weeks
Settings: in vivo, po, route oral GAVAGE, vehicle .5 % CMC; for ABSOLUTE BASOPHIL / ABSOLUTE EOSINOPHIL / ABSOLUTE LYMPHOCYTE / ABSOLUTE MONOCYTE / ABSOLUTE SEGMENTED NEUTROPHIL / BASOPHIL / EOSINOPHIL / ERYTHROCYTE COUNT / HEMATOCRIT / HEMOGLOBIN / LEUKOCYTE COUNT / LYMPHOCYTE / MEAN CORPUSCULAR HEMOGLOBIN / MEAN CORPUSCULAR HEMOGLOBIN CONCENTRATION / MEAN CORPUSCULAR VOLUME / MONOCYTE / NEUTROPHIL / NUCLEATED RED BLOOD CELLS / PLATELET COUNT: tissue Blood; for ALANINE AMINOTRANSFERASE / ALBUMIN / ALKALINE PHOSPHATASE / ASPARTATE AMINOTRANSFERASE / BLOOD UREA NITROGEN / CARBON DIOXIDE / CHLORIDE / CHOLESTEROL / CREATINE PHOSPHOKINASE / CREATININE / GLUCOSE / LACTATE DEHYDROGENASE / LIPASE / PHOSPHORUS / POTASSIUM / SODIUM / TOTAL BILIRUBIN / TOTAL PROTEIN / URIC ACID: tissue Plasma
[1] = 80 mg/kg, 72 h, dose level Low, time 3 day
[2] = 80 mg/kg, 120 h, dose level Low, time 5 day
[3] = 1500 mg/kg, 72 h, dose level High, time 3 day
[4] = 1500 mg/kg, 120 h, dose level High, time 5 day

With `O=c1cnn([C@@H]2O[C@H](CO)[C@@H](O)[C@H]2O)c(=O)[nH]1` [6-AZAURIDINE] the “ABSOLUTE BASOPHIL” value [1] was 0 CELLS/uL, the “ABSOLUTE EOSINOPHIL” value [1] was 0 CELLS/uL and the “ABSOLUTE LYMPHOCYTE” value [1] was 15386 CELLS/uL. For the same compound, the “ABSOLUTE MONOCYTE” value [1] was 95.33 CELLS/uL, the “ABSOLUTE SEGMENTED NEUTROPHIL” value [1] was 852 CELLS/uL and the BASOPHIL [1] was 0%. The EOSINOPHIL [1] was 0%, the “ERYTHROCYTE COUNT” value [1] was 5.24 x10E6/uL and the HEMATOCRIT [1] was 34.9%. For the same compound, the HEMOGLOBIN [1] was 13.33 G/DL, the “LEUKOCYTE COUNT” value [1] was 16.33 x10E3/uL and the LYMPHOCYTE [1] was 94%. For the same compound, the “MEAN CORPUSCULAR HEMOGLOBIN” value [1] was 25.47 pg, the “MEAN CORPUSCULAR HEMOGLOBIN CONCENTRATION” value [1] was 38.2 G/DL and the “MEAN CORPUSCULAR VOLUME” value [1] was 66.6 fL. For the same compound, the MONOCYTE [1] was 0.67%, the NEUTROPHIL [1] was 5.33% and the “NUCLEATED RED BLOOD CELLS” value [1] was 0.33 /100WBC. For the same compound, the “PLATELET COUNT” value [1] was 1177.67 x10E3/uL, the “ALANINE AMINOTRANSFERASE” value [1] was 32.67 u/L and the ALBUMIN [1] was 4.23 G/DL. The “ALKALINE PHOSPHATASE” value [1] was 410.67 u/L, the “ASPARTATE AMINOTRANSFERASE” value [1] was 74.33 u/L and the “BLOOD UREA NITROGEN” value [1] was 15.33 mg/dL. For the same compound, the “CARBON DIOXIDE” value [1] was 25 mmol/L, the CHLORIDE [1] was 106.67 MEQ/L and the CHOLESTEROL [1] was 73.67 mg/dL. For the same compound, the “CREATINE PHOSPHOKINASE” value [1] was 134.33 u/L, the CREATININE [1] was 0.2 mg/dL and the GLUCOSE [1] was 173.33 mg/dL. The “LACTATE DEHYDROGENASE” value [1] was 86.67 u/L, the LIPASE [1] was 10.33 u/L and the PHOSPHORUS [1] was 12.67 mg/dL. For the same compound, the POTASSIUM [1] was 6.8 MEQ/L, the SODIUM [1] was 148.73 MEQ/L and the “TOTAL BILIRUBIN” value [1] was 0.2 mg/dL. For the same compound, the “TOTAL PROTEIN” value [1] was 5.93 G/DL, the “URIC ACID” value [1] was 1.7 mg/dL and the “ABSOLUTE BASOPHIL” value [2] was 0 CELLS/uL. The “ABSOLUTE EOSINOPHIL” value [2] was 0 CELLS/uL, the “ABSOLUTE LYMPHOCYTE” value [2] was 12013.67 CELLS/uL and the “ABSOLUTE MONOCYTE” value [2] was 153.67 CELLS/uL. For the same compound, the “ABSOLUTE SEGMENTED NEUTROPHIL” value [2] was 1099.33 CELLS/uL, the BASOPHIL [2] was 0% and the EOSINOPHIL [2] was 0%. For the same compound, the “ERYTHROCYTE COUNT” value [2] was 5.94 x10E6/uL, the HEMATOCRIT [2] was 37.2% and the HEMOGLOBIN [2] was 13.73 G/DL. The “LEUKOCYTE COUNT” value [2] was 13.27 x10E3/uL, the LYMPHOCYTE [2] was 90.67% and the “MEAN CORPUSCULAR HEMOGLOBIN” value [2] was 23.2 pg. For the same compound, the “MEAN CORPUSCULAR HEMOGLOBIN CONCENTRATION” value [2] was 36.93 G/DL, the “MEAN CORPUSCULAR VOLUME” value [2] was 62.77 fL and the MONOCYTE [2] was 1.33%. For the same compound, the NEUTROPHIL [2] was 8%, the “NUCLEATED RED BLOOD CELLS” value [2] was 0.33 /100WBC and the “PLATELET COUNT” value [2] was 1474.67 x10E3/uL. For the same compound, the “ALANINE AMINOTRANSFERASE” value [2] was 38 u/L, the ALBUMIN [2] was 4.23 G/DL and the “ALKALINE PHOSPHATASE” value [2] was 363.67 u/L. For the same compound, the “ASPARTATE AMINOTRANSFERASE” value [2] was 88.33 u/L, the “BLOOD UREA NITROGEN” value [2] was 20.33 mg/dL and the “CARBON DIOXIDE” value [2] was 22 mmol/L. For the same compound, the CHLORIDE [2] was 104.33 MEQ/L, the CHOLESTEROL [2] was 68 mg/dL and the “CREATINE PHOSPHOKINASE” value [2] was 230.33 u/L. The CREATININE [2] was 0.22 mg/dL, the GLUCOSE [2] was 166.67 mg/dL and the “LACTATE DEHYDROGENASE” value [2] was 119.33 u/L. For the same compound, the LIPASE [2] was 10.33 u/L, the PHOSPHORUS [2] was 13.2 mg/dL and the POTASSIUM [2] was 6.55 MEQ/L. For the same compound, the SODIUM [2] was 146.7 MEQ/L, the “TOTAL BILIRUBIN” value [2] was 0.13 mg/dL and the “TOTAL PROTEIN” value [2] was 6.17 G/DL. For the same compound, the “URIC ACID” value [2] was 2.23 mg/dL, the “ABSOLUTE BASOPHIL” value [3] was 0 CELLS/uL and the “ABSOLUTE EOSINOPHIL” value [3] was 0 CELLS/uL. For the same compound, the “ABSOLUTE LYMPHOCYTE” value [3] was 9340.33 CELLS/uL, the “ABSOLUTE MONOCYTE” value [3] was 29.33 CELLS/uL and the “ABSOLUTE SEGMENTED NEUTROPHIL” value [3] was 363.67 CELLS/uL. For the same compound, the BASOPHIL [3] was 0%, the EOSINOPHIL [3] was 0% and the “ERYTHROCYTE COUNT” value [3] was 5.26 x10E6/uL. For the same compound, the HEMATOCRIT [3] was 32.03%, the HEMOGLOBIN [3] was 12.07 G/DL and the “LEUKOCYTE COUNT” value [3] was 9.73 x10E3/uL. For the same compound, the LYMPHOCYTE [3] was 96%, the “MEAN CORPUSCULAR HEMOGLOBIN” value [3] was 22.9 pg and the “MEAN CORPUSCULAR HEMOGLOBIN CONCENTRATION” value [3] was 37.7 G/DL. For the same compound, the “MEAN CORPUSCULAR VOLUME” value [3] was 60.9 fL, the MONOCYTE [3] was 0.33% and the NEUTROPHIL [3] was 3.67%. The “NUCLEATED RED BLOOD CELLS” value [3] was 0 /100WBC, the “PLATELET COUNT” value [3] was 1317.67 x10E3/uL and the “ALANINE AMINOTRANSFERASE” value [3] was 17.33 u/L. For the same compound, the ALBUMIN [3] was 4.3 G/DL, the “ALKALINE PHOSPHATASE” value [3] was 341 u/L and the “ASPARTATE AMINOTRANSFERASE” value [3] was 104.67 u/L. The “BLOOD UREA NITROGEN” value [3] was 15.33 mg/dL, the “CARBON DIOXIDE” value [3] was 18.67 mmol/L and the CHLORIDE [3] was 104.33 MEQ/L. For the same compound, the CHOLESTEROL [3] was 69.33 mg/dL, the “CREATINE PHOSPHOKINASE” value [3] was 704 u/L and the CREATININE [3] was 0.25 mg/dL. The GLUCOSE [3] was 179.67 mg/dL, the “LACTATE DEHYDROGENASE” value [3] was 167.67 u/L and the LIPASE [3] was 10 u/L. For the same compound, the PHOSPHORUS [3] was 12.03 mg/dL, the POTASSIUM [3] was 6.43 MEQ/L and the SODIUM [3] was 147.5 MEQ/L. For the same compound, the “TOTAL BILIRUBIN” value [3] was 0.2 mg/dL, the “TOTAL PROTEIN” value [3] was 5.87 G/DL and the “URIC ACID” value [3] was 1.67 mg/dL. For the same compound, the “ABSOLUTE BASOPHIL” value [4] was 0 CELLS/uL, the “ABSOLUTE EOSINOPHIL” value [4] was 44.67 CELLS/uL and the “ABSOLUTE LYMPHOCYTE” value [4] was 13100 CELLS/uL. The “ABSOLUTE MONOCYTE” value [4] was 44.67 CELLS/uL, the “ABSOLUTE SEGMENTED NEUTROPHIL” value [4] was 1177.33 CELLS/uL and the BASOPHIL [4] was 0%. For the same compound, the EOSINOPHIL [4] was 0.33%, the “ERYTHROCYTE COUNT” value [4] was 4.96 x10E6/uL and the HEMATOCRIT [4] was 30%. For the same compound, the HEMOGLOBIN [4] was 11.57 G/DL, the “LEUKOCYTE COUNT” value [4] was 14.37 x10E3/uL and the LYMPHOCYTE [4] was 91%. The “MEAN CORPUSCULAR HEMOGLOBIN” value [4] was 23.37 pg, the “MEAN CORPUSCULAR HEMOGLOBIN CONCENTRATION” value [4] was 38.53 G/DL and the “MEAN CORPUSCULAR VOLUME” value [4] was 60.57 fL. The MONOCYTE [4] was 0.33%, the NEUTROPHIL [4] was 8.33% and the “NUCLEATED RED BLOOD CELLS” value [4] was 0 /100WBC. For the same compound, the “PLATELET COUNT” value [4] was 1665.67 x10E3/uL, the “ALANINE AMINOTRANSFERASE” value [4] was 14.33 u/L and the ALBUMIN [4] was 3.5 G/DL. For the same compound, the “ALKALINE PHOSPHATASE” value [4] was 153 u/L, the “ASPARTATE AMINOTRANSFERASE” value [4] was 98.33 u/L and the “BLOOD UREA NITROGEN” value [4] was 16.33 mg/dL. The “CARBON DIOXIDE” value [4] was 33 mmol/L, the CHLORIDE [4] was 105.33 MEQ/L and the CHOLESTEROL [4] was 68.67 mg/dL. For the same compound, the “CREATINE PHOSPHOKINASE” value [4] was 888.33 u/L, the CREATININE [4] was 0.12 mg/dL and the GLUCOSE [4] was 159 mg/dL. For the same compound, the “LACTATE DEHYDROGENASE” value [4] was 129 u/L, the LIPASE [4] was 9.33 u/L and the PHOSPHORUS [4] was 11.03 mg/dL. The POTASSIUM [4] was 6.72 MEQ/L, the SODIUM [4] was 145.83 MEQ/L and the “TOTAL BILIRUBIN” value [4] was 0.2 mg/dL. The “TOTAL PROTEIN” value [4] was 4.83 G/DL and the “URIC ACID” value [4] was 1.5 mg/dL.
